Laboratory results published in patent publication US7279582B2, “Retroviral protease inhibiting compounds” (priority 1995, dated 2007).

Tests used:
uninfected MT4 cells = format: cell-based; details: n=4 duplicate determinations, read-out: LC50 (the source's name)
Description: (§1) The anti-HIV activity of the compound of the invention can be determined in MT4 cells according to the following procedure. MT4 cells were infected with cell-free supernatant of HIVIIIB (previously frozen with known 50% tissue culture infectious dose (TCID50) at 0.003 multiplicity of infection (MOI) for one hour. After one hour infection, cells were washed twice to remove residual viruses, resuspended in culture media and seeded into 96-well tissue culture plates at 1×10^4 cells per well with various half-log dilutions of compounds. Uninfected cells are included as toxicity and cell controls. RPMI 1640 media (Gibco) with 10% fetal bovine serum were used as culture media. Various concentrations of human serum (Sigma) 50%, 25% and 12.5% were added to culture media resulting in final concentration of 60%, 35% and 22.5% total serum. All assay plates were incubated in 37 deg. cent. incubator for 5 days. MTT (sigma, 5 mg/ml stock in PBS) was added to all wells at 25 ul per well, incubate for 4 hours. 20% SDS with 0.02 N HCI in water was added at 50 ul per well to lyse cells. Plates incubated overnight for complete lyses were read on a microtitre plate reader at 570/650 nm wavelengths to determine cell optical density (O.D.). Raw data were analysed for percent inhibition by the following formula: O.D. test well−O.D. virus control×100 O.D. cell control−O.D. virus control The 50% effective concentration (EC50) was calculated by the median effect equation (Chou, 1975, Proc. Int. Cong. Pharmacol. 6th p. 619) to determine the efficacy of compound. The 50% lethal concentration (LC50) was calculated using uninfected MT4 cells.
(§2) Under these conditions, the following data were obtained (n=4 duplicate determinations: […]

HIVIIIB = test: Anti-HIV activity in MT4 cells infected with HIVIIIB (MTT readout); format: cell-based; details: 0% plasma, 5 days, n=4 duplicate determinations
Description: as §1, §2

HIV protease = HIV protease (Human immunodeficiency virus type 1 group M subtype B, UniProt P04585); test: Fluorogenic assay for screening inhibitors of HIV protease; format: biochemical
Method: Fluorogenic Assay for Screening Inhibitors of HIV Protease
The inhibitory potency of the compound of the invention can be determined by the following method.
The compound of the invention is dissolved in DMSO and a small aliquot further diluted with DMSO to 100 times the final concentration desired for testing. The reaction is carried out in a 6×50 mm tube in a total volume of 300 microliters. The final concentrations of the components in the reaction buffer are: 125 mM sodium acetate, 1 M sodium chloride, 5 mM dithiothreitol, 0.5 mg/ml bovine serum albumin, 1.3 μM fluorogenic substrate, 2% (v/v) dimethylsulfoxide, pH 4.5. After addition of inhibitor, the reaction mixture is placed in the fluorometer cell holder and incubated at 30° C. for several minutes. The reaction is initiated by the addition of a small aliquot of cold HIV protease. The fluorescence intensity (excitation 340 nm, emmision 490 nM) is recorded as a function of time. The reaction rate is determined for the first six to eight minutes. The observed rate is directly proportional to the moles of substrate cleaved-per unit time. The percent inhibition is 100×(1−(rate in presence of inhibitor)/(rate in absence of inhibitor)).
Fluorogenic substrate: Dabcyl-Gaba-Ser-Gln-Asn-Tyr-Pro-lle-Val-Gln-EDANS wherein DABCYL=4-(4-dimethylamino-phenyl)azobenzoic acid, Gaba=γ-aminobutyric acid, and EDANS=5-((2-aminoethyl)amino)-naphthalene-1-sulfonic acid.

[1] = Inhibitor Concentration 0.5 nanomolar

| Compound | CC50 (uninfected MT4 cells) [µM] | IC50 (HIVIIIB) [µM] | Percent Inhibition (HIV protease; [1]) [%] | Percent Inhibition (HIV protease; Inhibitor Concentration 1.0 nanomolar) [%] |
| --- | --- | --- | --- | --- |
| Cc1cccc(C)c1OCC(=O)N[C@@H](Cc1ccccc1)[C@@H](O)C[C@H](Cc1ccccc1)NC(=O)[C@H](C(C)C)N1CCNC1=S [Example 9B, (2S,3S,5S)-2-(2,6-Dimethylphenoxyacetyl)amino-3-hydroxy-5-(2S-(1-imidazolidin-2-thionyl)-3-methylbutanoyl)amino-1,6-diphenylhexane] | 19.3 | 0.272 | 62.6 | – |
| CC(C)[C@@H](C(=O)N[C@@H](Cc1ccccc1)C[C@H](O)[C@H](Cc1ccccc1)NC(=O)O[C@@H]1CCS(=O)(=O)[C@@H]1C(C)C)N1CCCNC1=O (racemic) [Example 22E, (2S,3S,5S)-2-(cis(±)-1,1-Dioxo-2-isopropyl-3-tetrahydrothiophenoxy)amino-3-hydroxy-5-(2S-(1-tetrahydropyrimid-2-onyl)-3-methylbutanoyl)amino-1,6-diphenylhexane] | – | – | 71.8 | – |
| Cc1cccc(C)c1OCC(=O)N[C@@H](Cc1ccccc1)[C@@H](O)C[C@H](Cc1ccccc1)NC(=O)[C@H](C(C)C)N1CCC(=O)NC1=O [Example 23C, (2S,3S,5S)-2-(2,6-Dimethylphenoxyacetyl)amino-3-hydroxy-5-(2S-(1-dihydropyrimid-2,4-dionyl)-3-methyl-butanoyl)amino-1,6-diphenylhexane] | – | – | 86.0 | – |
| Cc1cccc(C)c1OCC(=O)N[C@@H](Cc1ccccc1)[C@@H](O)C[C@H](Cc1ccccc1)NC(=O)[C@@H](N1CCNC1=O)C(C)(C)C [Example 8, (2S,3S,5S)-2-(2,6-Dimethylphenoxyacetyl)amino-3-hydroxy-5-(2S-(1-imidazolidin-2-onyl)-3,3-dimethylbutanoyl)amino-1,6-diphenylhexane] | 17.8 | 0.019 | 55.6 | – |
| Cc1ccnc(C)c1OCC(=O)N[C@@H](Cc1ccccc1)[C@@H](O)C[C@H](Cc1ccccc1)NC(=O)[C@@H](N1CCNC1=O)C(C)(C)C [Example 14D, (2S,3S,5S)-2-(2,4-Dimethyl-pyridin-3-oxy-acetyl)amino-3-hydroxy-5-(2S-(1-imidazolidin-2-onyl)-3,3-dimethylbutanoyl)amino-1,6-diphenylhexane] | > 100 | 0.053 | 52.7 | – |
| Cc1cccc(C)c1OCC(=O)N[C@@H](Cc1ccccc1)[C@@H](O)C[C@H](NC(=O)[C@H](C(C)C)N1CCCNC1=O)C(C)C [Example 27D, (2S,3S,5S)-2-(2,6-Dimethylphenoxyacetyl)amino-3-hydroxy-5-[2S-(1-tetrahydro-pyrimid-2-onyl)-3-methylbutanoyl]amino-1-phenyl-6-methylheptane] | 56.2 | 0.03 | 92.9 | – |
| Cc1cccc(C)c1OCC(=O)N[C@@H](Cc1ccccc1)[C@@H](O)C[C@H](Cc1ccccc1)NC(=O)[C@H](C(C)C)N1CCNC(=O)C1=O [Example 29C, (2S,3S,5S)-2-(2,6-Dimethylphenoxyacetyl)amino-3-hydroxy-5-[2S-(1-piperazin-2,3-dionyl)-3-methylbutanoyl]amino-1,6-diphenylhexane] | 56 | 0.427 | 72.6 | – |
| Cc1cc(N)cc(C)c1OCC(=O)N[C@@H](Cc1ccccc1)[C@@H](O)C[C@H](Cc1ccccc1)NC(=O)[C@H](C(C)C)N1CCNC1=O [Example 10F, (2S,3S,5S)-2-(4-Amino-2,6-dimethylphenoxyacetyl)amino-3-hydroxy-5-(2S-(1-imidazolidin-2-onyl)-3-methyl-butanoyl)amino-1,6-diphenylhexane] | 92 | 0.047 | 81.0 | – |
| Cc1cccc(C)c1OCC(=O)N[C@@H](Cc1ccccc1)[C@@H](O)C[C@H](Cc1ccccc1)NC(=O)[C@H](C(C)C)N1C(=O)CCC1=O [Example 18C, (2S,3S,5S)-2-(2,6-Dimethylphenoxyacetyl)amino-3-hydroxy-5-(2S-(1-pyrrolidin-2,5-dionyl)-3-methyl-butanoyl)amino-1,6-diphenylhexane] | 19.1 | 0.329 | 57.8 | – |
| CC(C)[C@@H](C(=O)N[C@@H](Cc1ccccc1)C[C@H](O)[C@H](Cc1ccccc1)NC(=O)O[C@H]1CO[C@H]2OCC[C@H]21)N1CCNC1=O [Example 5, (2S,3S,5S)-2-[(3R,3aS,6aR)-Bis-tetrahydrofuranyloxy]amino-3-hydroxy-5-[2S-(1-imidazolidin-2-onyl)-3-methylbutanoyl]amino-1,6-diphenylhexane] | > 100 | 0.368 | 80.8 | – |
| Cc1cccc(C)c1OCC(=O)N[C@@H](Cc1ccccc1)[C@@H](O)C[C@H](Cc1ccccc1)NC(=O)[C@H](C(C)C)N1CCC(=O)NC1=O [Example 25E, (2S,3S,5S)-2-(2,6-Dimethylphenoxyacetyl)amino-3-hydroxy-5-[2S-(1-tetrahydro-pyrimid-2,4-dionyl)-3-methylbutanoyl]amino-1,6-diphenylhexane] | 22.9 | 0.012 | 100 | – |
| Cc1cccc(C)c1OCC(=O)N[C@@H](Cc1ccccc1)[C@@H](O)C[C@H](Cc1ccccc1)NC(=O)[C@H](C(C)C)N1CCNNC1=O [Example 26H, (2S,3S,5S)-2-(2,6-Dimethylphenoxyacetyl)amino-3-hydroxy-5[2S-(4-aza-1-tetrahydro-pyrimid-2-onyl)-3-methyl-butanoyl]amino-1,6-diphenylhexane] | 33 | 0.015 | 94.6 | – |
| Cc1cccc(C)c1OCC(=O)N[C@@H](Cc1ccccc1)[C@@H](O)C[C@H](Cc1ccccc1)NC(=O)[C@H](C(C)C)N1CCNC1=O [Example 1P, (2S,3S,5S)-2-(2,6-dimethylphenoxyacetyl)amino-3-hydroxy-5-[2S-(1-imidazolidin-2-onyl)-3-methyl-butanoyl]amino-1,6-diphenylhexane] | 41.3 | 0.01 | 92.6 | – |
| Cc1cccc(C)c1OCC(=O)N[C@@H](Cc1ccccc1)[C@@H](O)C[C@H](Cc1ccccc1)NC(=O)[C@H](C(C)C)N1CCCC1=O [Example 17C, (2S,3S,5S)-2-(2,6-Dimethylphenoxyacetyl)amino-3-hydroxy-5-(2S-(1-pyrrolidin-2-onyl)-3-methyl-butanoyl)amino-1,6-diphenylhexane] | 19 | 0.051 | 87.2 | – |
| Cc1cccc(C)c1OCC(=O)N[C@@H](Cc1ccccc1)[C@@H](O)C[C@H](Cc1ccccc1)NC(=O)[C@H](C(C)C)N1CCCNC1=O [Example 2B, (2S,3S,5S)-2-(2,6-Dimethylphenoxyacetyl)amino-3-hydroxy-5-[2S-(1-tetrahydro-pyrimid-2-onyl)-3-methylbutanoyl]amino-1,6-diphenylhexane] | 17.8 | 0.016 | 93.2 | – |
| Cc1cccc(C)c1CCC(=O)N[C@@H](Cc1ccccc1)[C@@H](O)C[C@H](Cc1ccccc1)NC(=O)[C@H](C(C)C)N1CCCNC1=O [Example 20D, (2S,3S,5S)-2-(3-(2,6-Dimethylphenyl)propanoyl)amino-3-hydroxy-5-(2S-(1-tetrahydropyrimidin-2-onyl)-3-methyl-butanoyl)amino-1,6-diphenylhexane] | 24.1 | 0.283 | – | – |
| Cc1cccc(C)c1OCC(=O)N[C@@H](Cc1ccccc1)[C@@H](O)C[C@H](Cc1ccccc1)NC(=O)[C@H](C(C)C)N1CCOC1=O [Example 3C, (2S,3S,5S)-2-(2,6-Dimethylphenoxyacetyl)amino-3-hydroxy-5-[2S-(3-oxazolidin-2-onyl)-3-methyl-butanoyl]amino-1,6-diphenylhexane] | 49.5 | 0.025 | 86.9 | – |
| Cc1ncnc(C)c1OCC(=O)N[C@@H](Cc1ccccc1)[C@@H](O)C[C@H](Cc1ccccc1)NC(=O)[C@H](C(C)C)N1CCNC1=O [Example 13B, (2S,3S,5S)-2-(4,6-Dimethylpyrimidin-5-oxy-acetyl)amino-3-hydroxy-5-(2S-(1-imidazolidin-2-onyl)-3-methyl-butanoyl)amino-1,6-diphenylhexane] | – | – | – | 56.2 |
